Measured values from patent US20240287093A1, “HIGH ACTIVITY STING PROTEIN AGONIST” (ADLAI NORTYE BIOPHARMA CO., LTD., priority 2018, published 2024).

How the values were obtained:
Format in all cases: cell-based
[1] = target: T1, STING variants (WT) (Homo sapiens, UniProt Q86WV6); test: SEAP reporter assay in HEK-Blue ISG KO-STING cells transfected with STING WT variant (Method 1); conditions: 24 h
T1 construct: host or cells: HEK-Blue ISG KO-STING cells (Invivogen, hkb-kostg)
Excerpt: (§1) Example I: STING Variants (WT & HAQ) Activation by Compounds in HEK-Blue™ ISG KO-STING Cells (Method 1)
(§2) Activation of STING can be determined using a SEAP reporter assay in HEK-Blue™ ISG KO-STING cells (Invivogen, cat #hkb-kostg) transfected with plasmids expressing STING variants (WT & HAQ) (referred to WO2017/175147A1). STING variants (WT & HAQ) vector were constructed based on STING-232H vector (Origene, RC208418). GFP vector (VT2069) was bought from Youbio. The detailed protocol as follows: HEK-Blue™ ISG KO-STING cells were harvest and seeding into 96 well plate, the final cell number was 0.8×10^5 cells/well. Transfections were prepared using Lipofectamine 2000 (Invitrogen, Cat #11668-027) following the manufacturer's instructions (Lipo2000:DNA=1:10), 20 ul of transfection suspension containing 1 ng STING vector was added to cell culture plate and incubated at 37° C., 5% CO2 for 24 h. After 24 hours incubation, compounds were added at proper concentration, and the final DMSO concentration was 0.5%. After 24 h incubation, the supernatant was collected to detect SEAP signal using Great EscAPe SEAP chemiluminescence KIT (Clontech, cat #631738) and cells were collected to detect cell viability using CellTiter-Glo Luminescent Cell Viability Assay (Promega, cat #G7573) following the manufacturer's instructions. The data were described by the ratio of the stimulating signal of compounds to 0.5% DMSO.

[2] = target: T2, STING variants (HAQ) (Homo sapiens, UniProt Q86WV6, G230A/R293Q/R71H); test: SEAP reporter assay in HEK-Blue ISG KO-STING cells transfected with STING HAQ variant (Method 1); conditions: 24 h
T2 construct: host or cells: HEK-Blue ISG KO-STING cells (Invivogen, hkb-kostg)
Excerpt: as §1, §2

[3] = target: T3, STING (Homo sapiens, UniProt Q86WV6, G230A/H232R/R293Q/R71H); test: IFNβ release from THP1 by STING activation (hIFNβ ELISA); conditions: THP1 cells, 24 h, IFN-β in supernatant; inactive = IFNβ not detected at the maximum concentration of compounds
T3 construct: THP1 was purchased from National Collection of Authenticated Cell Cultures (Cat #TCHu 57); host or cells: THP1
Method: Example III: Compound Stimulate THP1 to Release IFNβ by STING Activation
In this assay, activation of STING by compounds was evaluated by detecting their ability to stimulate the secretion of IFN-β (interferon-beta) from THP1. THP1 was purchased from National Collection of Authenticated Cell Cultures (Cat #TCHu 57). The top dose of compounds was setted according to their solubility. First, Compounds were 3 times diluted with medium, 8-dose points in total. The final DMSO concentration was 0.2%. THP1 during the logarithmic phase was resuspended to 2×10^6 cells/ml in assay medium. The THP1-cell suspension was dispensed into a 96-well U bottom plate containing 50 ul of compound diluted in medium. After 24 h incubation at 37° C., 5% CO2, the supernatant was collected. The concentration of IFN-β in the supernatant was measured using a human IFNβ ELISA KIT (R&D, DY814-05). The data was fitted with GraphPad Prism or XLfit to calculate EC50 values.

[4] = compound concentration 115.2 μM
[5] = compound concentration 206.6 μM
[6] = compound concentration 75.95 μM
[7] = compound concentration 153.2 μM
[8] = compound concentration 125.3 μM
[9] = compound concentration 127.7 μM

T3 sequence (Q86WV6 whole entry R71H/G230A/H232R/R293Q): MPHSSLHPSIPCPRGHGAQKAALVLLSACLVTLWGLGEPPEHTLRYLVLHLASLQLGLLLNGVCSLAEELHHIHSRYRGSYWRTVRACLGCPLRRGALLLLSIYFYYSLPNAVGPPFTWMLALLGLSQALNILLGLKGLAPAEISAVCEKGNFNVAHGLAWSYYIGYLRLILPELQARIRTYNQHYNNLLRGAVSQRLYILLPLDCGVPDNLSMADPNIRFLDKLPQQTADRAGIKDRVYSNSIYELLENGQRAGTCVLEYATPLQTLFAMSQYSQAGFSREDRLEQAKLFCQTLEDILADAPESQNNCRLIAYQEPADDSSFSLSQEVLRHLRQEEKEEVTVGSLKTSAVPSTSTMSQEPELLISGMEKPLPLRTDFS
T2 sequence (Q86WV6 whole entry R71H/G230A/R293Q): as the sequence (Q86WV6 whole entry R71H/G230A/H232R/R293Q) above, with R232H counted along it

CCn1nc(C)cc1C(=O)Nc1nc2cc(C(N)=O)cc3c2n1[C@H](CCCNC(=O)OCc1ccccc1)CO3 [Example 2, Benzyl (R)-(3-(7-carbamoyl-2-(1-ethyl-3-methyl-1H-pyrazole-5-carboxamido)-3,4-dihydro-5-oxa-1,2a-diazaacenaphthylen-3-yl)propyl)carbamate]
Fold change related to DMSO control, WT ([1]; compound concentration 77.9 μM): 2.25 fold
Fold change related to DMSO control, HAQ ([2]; compound concentration 77.9 μM): 6.46 fold
hIFNβ ELISA (EC50, μM) [3]: inactive

CCn1nc(C)cc1C(=O)Nc1nc2cc(C(N)=O)cc3c2n1[C@@H](CCNC(=O)COc1ccccc1)CO3 [Example 7, (S)-2-(1-Ethyl-3-methyl-1H-pyrazole-5-carboxamido)-3-(2-(2-phenoxyacetamido)ethyl)-3,4-dihydro-5-oxa-1,2a-diazaacenaphthylene-7-carboxamide]
Fold change related to DMSO control, WT [1, 4]: 2.70 fold
Fold change related to DMSO control, HAQ [2, 4]: 13.64 fold
hIFNβ ELISA (EC50, μM) [3]: inactive

CCn1nc(C)cc1C(=O)Nc1nc2cc(C(N)=O)cc3c2n1[C@@H](CCNC(=O)OCc1cccnc1)CO3 [Example 8, Pyridin-3-ylmethyl (S)-(2-(7-carbamoyl-2-(1-ethyl-3-methyl-1H-pyrazole-5-carboxamido)-3,4-dihydro-5-oxa-1,2a-diazaacenaphthylen-3-yl)ethyl)carbamate]
Fold change related to DMSO control, WT ([1]; compound concentration 73.3 μM): 3.47 fold
Fold change related to DMSO control, HAQ ([2]; compound concentration 73.3 μM): 13.17 fold
hIFNβ ELISA (EC50, μM) [3]: inactive

CCn1nc(C)cc1C(=O)Nc1nc2cc(C(N)=O)cc3c2n1[C@@H](CCNC(=O)OCc1ccccn1)CO3 [Example 9, Pyridin-2-ylmethyl (S)-(2-(7-carbamoyl-2-(1-ethyl-3-methyl-1H-pyrazole-5-carboxamido)-3,4-dihydro-5-oxa-1,2a-diazaacenaphthylen-3-yl)ethyl)carbamate]
Fold change related to DMSO control, WT [1, 5]: 2.86 fold
Fold change related to DMSO control, HAQ [2, 5]: 21.28 fold
hIFNβ ELISA (EC50, μM) [3]: inactive

CCn1nc(C)cc1C(=O)Nc1nc2cc(C(N)=O)cc3c2n1CCO3 [Example 11, 2-(1-Ethyl-3-methyl-1H-pyrazole-5-carboxamido)-3,4-dihydro-5-oxa-1,2a-diazaacenaphthylene-7-carboxamide]
Fold change related to DMSO control, WT ([1]; compound concentration 27.9 μM): 2.26 fold
Fold change related to DMSO control, HAQ ([2]; compound concentration 27.9 μM): 4.20 fold
hIFNβ ELISA (EC50, μM) [3]: inactive

CCn1nc(C)cc1C(=O)Nc1nc2cc(C(N)=O)cc3c2n1[C@@H](C)CO3 [Example 12]
Fold change related to DMSO control, WT ([1]; compound concentration 52.6 μM): 3.31 fold
Fold change related to DMSO control, HAQ ([2]; compound concentration 52.6 μM): 27.37 fold
EC50 [3]: > 8.9 µM

CCn1nc(C)cc1C(=O)Nc1nc2cc(C(N)=O)cc3c2n1[C@@H](CCNC(=O)/C=C/c1ccccc1)CO3 [Example 15, (S)-3-(2-Cinnamamidoethyl)-2-(1-ethyl-3-methyl-1H-pyrazole-5-carboxamido)-3,4-dihydro-5-oxa-1,2a-diazaacenaphthylene-7-carboxamide]
Fold change related to DMSO control, WT [1, 6]: 3.68 fold
Fold change related to DMSO control, HAQ [2, 6]: 20.00 fold
hIFNβ ELISA (EC50, μM) [3]: inactive

CCn1nc(C)cc1C(=O)Nc1nc2cc(C(N)=O)cc3c2n1C[C@@H](C)O3 [Example 16, (R)-2-(1-Ethyl-3-methyl-1H-pyrazole-5-carboxamido)-4-methyl-3,4-dihydro-5-oxa-1,2a-diazaacenaphthylene-7-carboxamide]
Fold change related to DMSO control, WT ([1]; compound concentration 42.8 μM): 3.00 fold
Fold change related to DMSO control, HAQ ([2]; compound concentration 42.8 μM): 15.06 fold
hIFNβ ELISA (EC50, μM) [3]: inactive

CCn1nc(C)cc1C(=O)Nc1nc2cc(C(N)=O)cc3c2n1[C@@H](CCCCNC(=O)OCc1cccnc1)CO3 [Example 18, Pyridin-3-ylmethyl (S)-(4-(7-carbamoyl-2-(1-ethyl-3-methyl-1H-pyrazole-5-carboxamido)-3,4-dihydro-5-oxa-1,2a-diazaacenaphthylen-3-yl)butyl)carbamate]
Fold change related to DMSO control, WT [1, 7]: 1.58 fold
Fold change related to DMSO control, HAQ [2, 7]: 17.64 fold
hIFNβ ELISA (EC50, μM) [3]: inactive

CCn1nc(C)cc1C(=O)Nc1nc2cc(C(N)=O)cc3c2n1[C@@H](CCCCNC(=O)OCc1ccccn1)CO3 [Example 19, Pyridin-2-ylmethyl (S)-(4-(7-carbamoyl-2-(1-ethyl-3-methyl-1H-pyrazole-5-carboxamido)-3,4-dihydro-5-oxa-1,2a-diazaacenaphthylen-3-yl)butyl)carbamate]
Fold change related to DMSO control, WT [1, 8]: 1.65 fold
Fold change related to DMSO control, HAQ [2, 8]: 20.80 fold
hIFNβ ELISA (EC50, μM) [3]: inactive

CCn1nc(C)cc1C(=O)Nc1nc2cc(C(N)=O)cc3c2n1[C@@H](CCCCNC(=O)OCc1ccncc1)CO3 [Example 20, Pyridin-4-ylmethyl (S)-(4-(7-carbamoyl-2-(1-ethyl-3-methyl-1H-pyrazole-5-carboxamido)-3,4-dihydro-5-oxa-1,2a-diazaacenaphthylen-3-yl)butyl)carbamate]
Fold change related to DMSO control, WT [1, 9]: 1.43 fold
Fold change related to DMSO control, HAQ [2, 9]: 16.22 fold
hIFNβ ELISA (EC50, μM) [3]: inactive

CCn1nc(C)cc1C(=O)Nc1nc2cc(C(N)=O)cc3c2n1[C@@H](C)CCO3 [Example 22, (S)-1-(1-Ethyl-3-methyl-1H-pyrazole-5-carboxamido)-9-methyl-8,9-dihydro-7H-6-oxa-2,9a-diazabenzo[cd]azulene-4-carboxamide]
Fold change related to DMSO control, WT ([1]; compound concentration 25 μM): 3.02 fold
Fold change related to DMSO control, HAQ ([2]; compound concentration 25 μM): 95.64 fold
hIFNβ ELISA (EC50, μM) [3]: inactive

CCC[C@H]1COc2cc(C(N)=O)cc3nc(NC(=O)c4cc(C)nn4CC)n1c23 [Example 23, (S)-2-(1-Ethyl-3-methyl-1H-pyrazole-5-carboxamido)-3-propyl-3,4-dihydro-5-oxa-1,2a-diazacenaphthylene-7-carboxamide]
Fold change related to DMSO control, WT ([1]; compound concentration 25 μM): 2.62 fold
Fold change related to DMSO control, HAQ ([2]; compound concentration 25 μM): 81.27 fold
hIFNβ ELISA (EC50, μM) [3]: inactive

CCn1nc(C)cc1C(=O)Nc1nc2cc(C(N)=O)cc3c2n1[C@@H](Cc1ccccc1)CO3 [Example 24, (S)-3-Benzyl-2-(1-ethyl-3-methyl-1H-pyrazole-5-carboxamido)-3,4-dihydro-5-oxa-1,2a-diazaacenaphthylene-7-carboxamide]
Fold change related to DMSO control, WT ([1]; compound concentration 25 μM): 2.33 fold
Fold change related to DMSO control, HAQ ([2]; compound concentration 25 μM): 65.85 fold
hIFNβ ELISA (EC50, μM) [3]: inactive

CCn1nc(C)cc1C(=O)Nc1nc2cc(C(N)=O)cc3c2n1[C@@H](C(C)C)CO3 [Example 25, (S)-2-(1-Ethyl-3-methyl-1H-pyrazole-5-carboxamido)-3-isopropyl-3,4-dihydro-5-oxa-1,2a-diazaacenaphthylene-7-carboxamide]
Fold change related to DMSO control, WT ([1]; compound concentration 25 μM): 2.24 fold
Fold change related to DMSO control, HAQ ([2]; compound concentration 25 μM): 56.18 fold
EC50 [3]: > 16.7 µM

CC[C@H]1COc2cc(C(N)=O)cc3nc(NC(=O)c4cc(C)nn4CC)n1c23 [Example 26, (S)-3-Ethyl-2-(1-ethyl-3-methyl-1H-pyrazole-5-carboxamido)-3,4-dihydro-5-oxa-1,2a-diazaacenaphthylene-7-carboxamide]
Fold change related to DMSO control, WT ([1]; compound concentration 25 μM): 2.00 fold
Fold change related to DMSO control, HAQ ([2]; compound concentration 25 μM): 63.91 fold
EC50 [3]: 11.4 µM

CCn1nc(C)cc1C(=O)Nc1nc2cc(C(N)=O)cc3c2n1CC(C)(C)CO3 [Example 27, 1-(1-Ethyl-3-methyl-1H-pyrazole-5-carboxamido)-8,8-dimethyl-8,9-dihydro-7H-6-oxa-2,9a-diazabenzo[cd]azulene-4-carboxamide]
Fold change related to DMSO control, WT ([1]; compound concentration 25 μM): 2.37 fold
Fold change related to DMSO control, HAQ ([2]; compound concentration 25 μM): 56.43 fold
EC50 [3]: 22.1 µM
